Assay results from the supplement of paper PMC11451515.

What was measured:
SEM cells [1] = experiment: cell viability relative to DMSO control; higher = less cytotoxic; details: HPLM + 10% dialyzed FBS, 48 h
In short: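 NOMO1, SEM and P12-Ichikawa leukemia cells spent at least four passages adapting to each medium before use. They were seeded at 500 cells/well (NOMO1, SEM) or 1000 cells/well (P12-Ichikawa) in 5 μl in 1536-well plates and pin-dosed with library compounds in DMSO at 11 threefold steps from 47 μM down to 0.79 nM. After 48 h at 37°C, CellTiter-Glo One luminescence was read. Viability is reported as a percentage of the DMSO wells on each plate, with cell-free wells as background.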

P12-Ichikawa = experiment: AUC of viability dose-response curve (% viability x log10 dose units); higher = less sensitive; details: 48 h
In short: (§1)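 Viability of medium-adapted leukemia cells was measured by CellTiter-Glo One luminescence after 48 h at 37°C with library compounds in DMSO. Doses were 11 threefold steps from 47 μM to 0.79 nM, in 1536-well plates at 500 or 1000 cells/well. Signals were normalised per plate to DMSO and cell-free wells and fitted with a four-parameter log-logistic model on log10 dose. Area under the curve was integrated by trapezoidal rule, with curves exceeding full viability scaled and failed quality-control curves removed.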

NOMO1 = experiment: as above; details: 48 h
In short: as §1

SEM cells [2] = experiment: as above; details: 48 h
In short: as §1

[3] = RPMI 5 mM glucose + 10% dialyzed FBS

| SMILES | cell viability (SEM cells [1]; 0.000781 µM) [%] | cell viability (SEM cells [1]; 0.00234 µM) [%] | cell viability (SEM cells [1]; 0.00702 µM) [%] | cell viability (SEM cells [1]; 0.0211 µM) [%] | cell viability (SEM cells [1]; 0.0632 µM) [%] | cell viability (SEM cells [1]; 0.19 µM) [%] | cell viability (SEM cells [1]; 0.569 µM) [%] | cell viability (SEM cells [1]; 1.71 µM) [%] | cell viability (SEM cells [1]; 5.12 µM) [%] | cell viability (SEM cells [1]; 15.4 µM) [%] | cell viability (SEM cells [1]; 46.1 µM) [%] | AUC of viability dose-response curve (P12-Ichikawa; HPLM + 10% dialyzed FBS) | AUC of viability dose-response curve (P12-Ichikawa; RPMI 5 mM glucose + 10% FBS) | AUC of viability dose-response curve (P12-Ichikawa; [3]) | AUC of viability dose-response curve (NOMO1; HPLM + 10% dialyzed FBS) | AUC of viability dose-response curve (NOMO1; RPMI 5 mM glucose + 10% FBS) | AUC of viability dose-response curve (NOMO1; [3]) | AUC of viability dose-response curve (SEM cells [2]; HPLM + 10% dialyzed FBS) | AUC of viability dose-response curve (SEM cells [2]; RPMI 5 mM glucose + 10% FBS) | AUC of viability dose-response curve (SEM cells [2]; [3]) |
| --- | --- | --- | --- | --- | --- | --- | --- | --- | --- | --- | --- | --- | --- | --- | --- | --- | --- | --- | --- | --- |
| COC(=O)/C=C/C(=O)OC | 118 | 126 | 106 | 119 | 135 | 135 | 126 | 124 | 60 | 43.8 | 43.3 | 323 | 368 | 352 | 433 | 402 | 413 | 406 | 354 | 376 |
| CN(C)C/C=C/C(=O)Nc1cc2c(Nc3ccc(F)c(Cl)c3)ncnc2cc1O[C@H]1CCOC1 | – | – | – | – | – | – | – | – | – | – | – | 337 | 338 | 347 | 339 | 342 | 345 | 320 | 304 | 324 |
